The values that follow come from article PMC5610175, “The Kinetochore Receptor for the Cohesin Loading Complex” (Cell, 2017).

For one test, the target named is T1, Scc2^1-181-Scc4 (WT) (Saccharomyces cerevisiae, UniProt P40090+Q04002).
T1 construct: made in house; host or cells: bacteria (E. coli is stated only for the Ctf19 complex proteins)
T1 sequence (P40090 1-624): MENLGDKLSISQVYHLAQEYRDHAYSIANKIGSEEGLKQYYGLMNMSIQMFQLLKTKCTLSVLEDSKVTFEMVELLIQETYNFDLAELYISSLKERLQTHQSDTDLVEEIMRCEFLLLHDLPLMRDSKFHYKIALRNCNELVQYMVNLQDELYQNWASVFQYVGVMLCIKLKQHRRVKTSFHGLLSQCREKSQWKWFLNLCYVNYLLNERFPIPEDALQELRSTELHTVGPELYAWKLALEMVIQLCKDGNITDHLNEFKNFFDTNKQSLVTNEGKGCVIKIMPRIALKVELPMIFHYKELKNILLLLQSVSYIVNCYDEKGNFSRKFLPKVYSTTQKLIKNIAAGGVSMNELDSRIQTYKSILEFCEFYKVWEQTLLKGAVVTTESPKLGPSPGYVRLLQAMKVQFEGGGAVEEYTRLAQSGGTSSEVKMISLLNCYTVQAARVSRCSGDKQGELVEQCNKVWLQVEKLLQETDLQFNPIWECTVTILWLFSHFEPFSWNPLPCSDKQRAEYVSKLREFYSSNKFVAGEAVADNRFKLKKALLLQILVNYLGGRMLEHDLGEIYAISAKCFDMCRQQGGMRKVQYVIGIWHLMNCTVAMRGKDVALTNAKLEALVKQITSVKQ
T1 sequence (Q04002 1-181 partner limits assumed): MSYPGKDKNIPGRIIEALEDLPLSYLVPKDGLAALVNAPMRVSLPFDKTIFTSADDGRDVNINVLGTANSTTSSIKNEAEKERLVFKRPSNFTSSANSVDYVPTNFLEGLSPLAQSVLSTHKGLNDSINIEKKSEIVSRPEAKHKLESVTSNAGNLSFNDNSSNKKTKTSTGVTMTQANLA
Put plainly: Peptide binding to Scc2^1-181-Scc4 WT by biolayer interferometry. More on the design: species or system budding yeast. Particulars: Scc2^1–181-Scc4 WT. As to the method:
Figure S5 Synthetic Ctf19^1–11 binds Scc2^1–181-Scc4, and Binding Requires Phosphorylation of Ctf19 Residue T4 or S5, Related to Figure 6 Experiments were carried out as in Figure 6B (error bars – +/−SD for three independent experiments, obscured by data points where not visible). m3 refers to immobilized Scc2^1-181-Scc4^m3. Ctf19 peptides and Scc2^1-181-Scc4 complexes used are listed in the table along with measured dissociation constants (Kd; SE – standard error for best-fit binding curve; single site, specific binding; Phos. – phosphorylated residues). TEXT PRINTED IN THE PICTURE: Ctf19 residues 1-11; Phos. none: Kd(±SE)(μM): n.d. (Scc2^1-181-Scc4: WT) | Ctf19 residues 1-11; Phos. pT4: Kd(±SE)(μM): 1757(6000+) (Scc2^1-181-Scc4: WT) | Ctf19 residues 1-11; Phos. pS5: Kd(±SE)(μM): 122(66) (Scc2^1-181-Scc4: WT); Kd(±SE)(μM): n.d. (Scc2^1-181-Scc4: m3) | Ctf19 residues 1-6; Phos. pT4;pS5: Kd(±SE)(μM): 22.6(3.0) (Scc2^1-181-Scc4: WT)
We used biolayer interferometry (ForteBio) to quantify the interaction between Scc2^1-181–Scc4 and synthetic peptides derived from the N-terminal region of Ctf19 (Tufts University Core Facility, Boston). For all steps, we used octet buffer (40mM HEPES, pH 7.5; 200mM NaCl; 1mM DTT) and low-volume 96-well opaque black plates. […] This step was allowed to reach saturation before a final incubation in octet buffer.
To derive binding curves, we first applied a linear correction so that all association steps began at zero response units. We then performed a linear drift correction by subtracting the signal for Scc2^1-181-Scc4 incubated in buffer alone during the association step (no peptide, linear subtraction for each time point, independent control for each experiment). We then applied a loading factor to correct for the Scc2^1-181-Scc4 immobilization efficiency for each well. From these normalized association curves, we extracted maximum responses for each well by averaging the signal across the final ten seconds of the association step. We performed these operations for three independent experiments, performed with new tips and samples, for each data point. […] Data points represent mean maximum responses, and error bars show the standard deviation for the three experiments. Fits were determined using GraphPad Prism software assuming a single specific binding site.

Test [1] relates to centromeric Scc2 in ctf3Δ cells expressing DBF4-FRB and CTF19-FKBP12. Kind of test: Artificial tethering of Dbf4-FRB to Ctf19-FKBP12: centromeric Scc2 localization by ChIP-qPCR. The note with it: rapamycin 1 μM, 2.5 hr, nocodazole and benomyl, versus DMSO, at least four independent experiments. The format is cell-based, budding yeast. Background: Real-time PCR tracks product formation cycle by cycle.
Description: (F) Scc2 localization was assessed by ChIP-qPCR in the presence or absence of DDK tethering, CTF3, and Ctf19 phosphorylation sites. Wild-type (AM21613), ctf19-9A (AM21681), ctf19-2A (AM22360), ctf3Δ (AM21614), ctf19-9A ctf3Δ (AM21617), ctf19-2A ctf3Δ (AM22672), and control (AM21486) strains, all expressing DBF4-FRB and CTF19-FKBP12, were arrested in G1 for 3 hr before release into medium containing nocodazole, benomyl, and either DMSO (no DDK tethering) or rapamycin (DDK tethering; 1 μM) for 2.5 hr. Mean values of at least four independent experiments are shown. Error bars indicate SE (^∗p < 0.05; ^∗∗p < 0.01; Student’s t test, unpaired, two-tails; ns, not significant).
To artificially tether Dbf4 to the kinetochores, Dbf4 was tagged with FRB (pFA6a-FRB-KanMX6), and CTF19, ctf19-9A and ctf19-2A were tagged with FKBP12-TRP1 (pFA6a-FKBP12-TRP1). Proteins were tagged at their C-termini by one-step cassette integrations at their original gene loci as previously described ([Haruki et al., 2008]). Yeast strains for these experiments also carried TOR1-1, which confers rapamycin resistance, and the fpr1Δ mutation. Tethering of FRB and FKBP12 fusion proteins was induced by addition of rapamycin to the medium at a final concentration of 1 μM. For control cultures, an equal volume of DMSO was added instead. […]

Test [2] deals with analog-sensitive DDK (Cdc7-AS3/Dbf4). Put plainly: DDK activity assay: phosphate transfer to Ctf19-Mcm21 by analog-sensitive DDK. The format is biochemical, S. cerevisiae. Particulars: Ctf19-Mcm21 substrate, γ-^32[P]-ATP, one hour at 30°C, autoradiography, similar to those that inhibit kinase activity in vivo (Wan et al., 2006). As to the method:
Figure S2 Determinants of Ctf19 Phosphorylation by DDK, Related to Figure 1 (A) Products of phosphorylation reactions containing Ctf19-Mcm21, analog-sensitive DDK, γ-^32[P]-ATP, and increasing concentrations of PP1. (B) Reactions carried out as in panel A, except wild-type DDK was used as in Figure 1B. After phosphorylation, reactions were subjected to a brief cleavage reaction by incubation with trypsin (top, autoradiography). Identical cleavage reactions were carried out in the absence of DDK and ATP to identify Ctf19-Mcm21 cleavage fragments (bottom; Coomassie). A schematic of the cleavage reaction is shown below (PDB: 3ZXU). (C) Phosphorylation of mutant Ctf19-Mcm21 complexes by purified DDK. Phosphorylation reactions were carried out as in panel A except that PP1 was not included. Substrates are indicated below. […] Reactions were carried out as in (B) in the presence or absence of an equimolar amount of purified Ctf3 complex.
An S. cerevisiae strain in which Cdc7 has been tagged at its C terminus with a TAP tag (calmodulin binding peptide – TEV site – tandem Protein A tags) was grown to an optical density (A600) of 2 in 12 l of yeast extract peptone dextrose (YPD) medium. […]
For phosphorylation reactions, purified DDK was concentrated to approximately 20uM as determined by absorbance at 280nm. […] Reaction products were analyzed by SDS-PAGE and autoradiography.

In the case of “MDFpTSDTTNSH [Ctf19 residues 1-11; Phos. pT4, synthetic Ctf19^1–11 peptide phosphorylated at T4]”, the “binding to Scc2^1–181-Scc4 in vitro (in words)” value at Scc2^1-181-Scc4 (WT) (pH 7.5) is reported as “detectable binding”.

Turning to `CO[C@H]1C[C@@H]2CC[C@@H](C)[C@@](O)(O2)C(=O)C(=O)N2CCCC[C@H]2C(=O)O[C@H]([C@H](C)C[C@@H]2CC[C@@H](O)[C@H](OC)C2)CC(=O)[C@H](C)/C=C(\C)[C@@H](O)[C@@H](OC)C(=O)[C@H](C)C[C@H](C)/C=C/C=C/C=C/1C` [rapamycin], in test [1], the “effect on Ctf3 requirement for centromeric Scc2 localization (in words)” value is “bypassed the Ctf3 requirement”.

Turning to “MDFTSDTTNSH [Ctf19 residues 1-11; Phos. none, unmodified synthetic Ctf19^1–11 peptide]”, the “binding to Scc2^1–181-Scc4 in vitro (in words)” value on Scc2^1-181-Scc4 (WT) (pH 7.5, listed as unmodified Ctf19^1–11) is “did not interact with Scc2^1–181-Scc4”; on Scc2^1-181-Scc4 (WT) (pH 7.5, listed as unphosphorylated peptide), “did not”.

`CC(C)(C)n1nc(-c2cccc3ccccc23)c2c(N)ncnc21` [PP1]: in test [2], the “concentration at which phosphate transfer to Ctf19 was inhibited” value was around 25 µM.
